The molecules below were run against Recombinant full length human PFKFB3 (Homo sapiens, UniProt Q16875) (assay: PFKFB3 kinase activity assay (ADP production, ADP-Glo)).
Sequence of Recombinant full length human PFKFB3 (Q16875 whole entry): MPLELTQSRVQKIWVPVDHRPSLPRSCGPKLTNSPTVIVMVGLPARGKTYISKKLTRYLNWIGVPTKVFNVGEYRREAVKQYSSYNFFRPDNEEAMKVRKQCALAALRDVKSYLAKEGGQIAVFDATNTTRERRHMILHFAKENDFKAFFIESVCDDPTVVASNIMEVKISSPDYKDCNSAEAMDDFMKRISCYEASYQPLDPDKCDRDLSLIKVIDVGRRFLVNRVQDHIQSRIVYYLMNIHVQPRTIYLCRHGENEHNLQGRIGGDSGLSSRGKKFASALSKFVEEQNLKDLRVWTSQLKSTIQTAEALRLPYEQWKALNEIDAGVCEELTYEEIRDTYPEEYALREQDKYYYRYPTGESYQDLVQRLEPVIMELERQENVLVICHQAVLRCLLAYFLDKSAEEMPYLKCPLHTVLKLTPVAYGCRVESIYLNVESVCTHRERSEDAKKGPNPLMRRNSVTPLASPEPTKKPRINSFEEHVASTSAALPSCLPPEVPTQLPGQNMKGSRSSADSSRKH

| IC50 [µM] | SMILES |
| --- | --- |
| < 0.5 | CCOC(=O)c1ccc(-c2ccc(Cl)cc2Cl)cc1NC(=O)c1cc(C(=O)O)c(O)cc1C(=O)O [Example 60, 2-{[2′,4′-dichloro-4-(ethoxycarbonyl)-[1,1′-biphenyl]-3-yl]carbamoyl}-5-hydroxybenzene-1,4-dicarboxylic acid] |
| 5 to 20 | COc1ccc(-c2nnn[nH]2)c(N2C(=O)c3ccc(-c4c[nH]nn4)cc3C2=O)c1 [compound 154, 2-(2-(1H-tetrazol-5-yl)-5-methoxyphenyl)-5-(1H-1,2,3-triazol-4-yl)isoindoline-1,3-dione] |
| 5 to 20 | O=C(OCCN1CCOCC1)c1ccc(-c2ccccc2)cc1N1C(=O)c2ccc(-c3c[nH]nn3)cc2C1=O [Example 67] |
| 5 to 20 | O=C1c2ccc(-c3c[nH]nn3)cc2C(=O)N1c1cc(-c2ccc(F)cc2)ccn1 [Compound 87, 2-[4-(4-Fluorophenyl)-pyridin-2-yl]-5-(1H-[1,2,3]triazol-4-yl)-isoindole-1,3-dione] |
| < 20 | CC(C)OC(=O)c1ccc(-c2ccc(F)c(F)c2)cc1N1Cc2ccc(CO)cc2C1=O [compound 156, isopropyl 3′,4′-difluoro-3-(6-(hydroxymethyl)-1-oxoisoindolin-2-yl)biphenyl-4-carboxylate] |
| < 20 | O=C(OCCN1CCCC1)c1ccc(-c2ccc(F)c(F)c2)cc1N1Cc2ccc(-c3c[nH]nn3)cc2C1=O [Compound 115, 3′,4′-Difluoro-3-[1-oxo-6-(1H-[1,2,3]triazol-4-yl)-1,3-dihydroisoindol-2-yl]biphenyl-4-carboxylic acid 2-pyrrolidin-1-yl-ethyl ester] |
| 5 to 20 | COc1ccc(-c2c(C)sc(NC(=O)c3ccc(-c4c[nH]nn4)cc3C(N)=O)c2C#N)cc1 [Example 8, N1-[3-cyano-4-(4-methoxyphenyl)-5-methylthiophen-2-yl]-4-(2H-1,2,3-triazol-4-yl)benzene-1,2-dicarboxamide] |
| < 20 | CN(C)CCOC(=O)c1ccc(-c2ccc(F)c(F)c2)cc1N1Cc2ccc(-c3c[nH]nn3)cc2C1=O [Compound 112, 3′,4′-Difluoro-3-[1-oxo-6-(1H-[1,2,3]triazol-4-yl)-1,3-dihydroisoindol-2-yl]biphenyl-4-carboxylic acid 2-dimethylamino-ethyl ester] |
| 5 to 20 | COc1cc(N2C(=O)c3ccc(C(=O)O)cc3C2=O)ccc1-c1ccccc1 [Example 1] |
| 5 to 20 | COC(=O)c1ccc(-c2ccc(F)c(F)c2)cc1N1Cc2ccc(-c3nnn[nH]3)cc2C1=O [Compound 99, 3′,4′-Difluoro-3-[1-oxo-6-(1H-tetrazol-5-yl)-1,3-dihydroisoindol-2-yl]biphenyl-4-carboxylic acid methyl ester] |
| < 20 | N#Cc1cc(-c2ccccc2)ccc1N1C(=O)c2ccc(C(=O)O)cc2C1=O [compound 145, 2-(3-cyanobiphenyl-4-yl)-1,3-dioxoisoindoline-5-carboxylic acid] |
| < 0.5 | O=C(O)c1ccc2c(c1)C(=O)N(c1cc(-c3cc(F)c(F)cc3F)ccc1C(=O)O)C2=O [Compound 140, 2-(4-Carboxy-2′,4′,5′-trifluoro[1,1′-biphenyl]-3-yl)-1,3-dioxo-2,3-dihydro-1H-isoindole-5-carboxylic Acid] |
| 0.5 to 2 | COc1ccc(-c2c(C)sc(N3C(=O)c4ccc(C(=O)NS(C)(=O)=O)cc4C3=O)c2C#N)cc1 [Example 14] |
| < 20 | CCOC(=O)c1ccc(-c2ccc(F)c(F)c2)cc1N1Cc2ccc(CO)cc2C1=O [compound 159, ethyl 3′,4′-difluoro-3-(6-(hydroxymethyl)-1-oxoisoindolin-2-yl)biphenyl-4-carboxylate] |
| < 20 | CCOC(=O)c1ccc(-c2ccc(F)c(F)c2)cc1N1C(=O)c2ccc(-c3cnn[nH]3)cc2C1=O [compound 167, ethyl 3-[1,3-dioxo-5-(1H-1,2,3-triazol-5-yl)-1,3-dihydro-2H-isoindol-2-yl]-3′,4′-difluoro[1,1′-biphenyl]-4-carboxylate] |
| 2 to 5 | O=C(O)c1cc(Cl)c(-c2cnn[nH]2)cc1NC(=O)c1cc(-c2ccc(F)c(F)c2)ccc1C(=O)O [Example 20, 3-((2-carboxy-4-chloro-5-(1H-1,2,3-triazol-5-yl)phenyl)carbamoyl)-3′,4′-difluoro-[1,1′-biphenyl]-4-carboxylic acid] |
| < 0.5 | CS(=O)(=O)NC(=O)c1ccc2c(c1)C(=O)N(c1cc(-c3ccccc3)ccc1C(=O)O)C2 [Compound 104, 3-(6-Methanesulfonylaminocarbonyl-1-oxo-1,3-dihydroisoindol-2-yl)biphenyl-4-carboxylic Acid] |
| 2 to 5 | COCCOC(=O)c1ccc(-c2ccccc2)cc1N1C(=O)c2ccc(-c3c[nH]nn3)cc2C1=O [Compound 69, 3-[1,3-Dioxo-5-(1H-[1,2,3]triazol-4-yl)-1,3-dihydroisoindol-2-yl]biphenyl-4-carboxylic acid 2-methoxy-ethyl ester] |
| < 0.5 | O=C(O)c1cc2c(cc1Br)C(=O)N(c1cc(-c3ccc(F)c(F)c3)ccc1C(=O)O)C2=O [compound 169, 6-bromo-2-(4-carboxy-3′,4′-difluoro[1,1′-biphenyl]-3-yl)-1,3-dioxo-2,3-dihydro-1H-isoindole-5-carboxylic acid] |
| < 0.5 | O=C(O)c1ccc2c(c1)C(=O)N(c1cc(-c3cccc(F)c3)ccc1C(=O)O)C2=O [Example 46] |
| 2 to 5 | NC(=O)c1[nH]nnc1-c1ccc2c(c1)C(=O)N(c1cc(-c3ccc(F)c(F)c3)ccc1C(=O)O)C2 [compound 164, 3-(6-(5-carbamoyl-1H-1,2,3-triazol-4-yl)-1-oxoisoindolin-2-yl)-3′,4′-difluorobiphenyl-4-carboxylic acid] |
| < 20 | CNCCOC(=O)c1cc(-c2ccccc2)ccc1N1C(=O)c2ccc(-c3c[nH]nn3)cc2C1=O [Compound 81, 4-[1,3-Dioxo-5-(1H-[1,2,3]triazol-4-yl)-1,3-dihydroisoindol-2-yl]biphenyl-3-carboxylic acid 2-methylamino-ethyl ester] |
| < 0.5 | O=C(O)c1cc(-c2ccccc2)ccc1N1C(=O)c2ccc(-c3nnn[nH]3)cc2C1=O [Compound 94, 4-[1,3-Dioxo-5-(1H-tetrazol-5-yl)-1,3-dihydroisoindol-2-yl]biphenyl-3-carboxylic Acid] |
| < 20 | CCCCOC(=O)c1ccc2c(c1)C(=O)N(c1cc(-c3ccc(F)c(F)c3)ccc1C(N)=O)C2 [Compound 123, 2-(4-Carbamoyl-3′,4′-difluorobiphenyl-3-yl)-3-oxo-2,3-dihydro-1H-isoindole-5-carboxylic acid butyl ester] |
| < 20 | NC(=O)c1ccc(-c2ccc(F)c(F)c2)cc1N1Cc2ccc(-c3c[nH]nn3)cc2C1=O [Compound 113, 3′,4′-Difluoro-3-[1-oxo-6-(1H-[1,2,3]triazol-4-yl)-1,3-dihydroisoindol-2-yl]biphenyl-4-carboxylic acid amide] |
| < 0.5 | N#Cc1c(N2C(=O)c3ccc(C(=O)O)cc3C2=O)sc(-c2ccccc2)c1-c1ccccc1 [Compound 133, 2-(3-Cyano-4,5-diphenylthiophen-2-yl)-1,3-dioxo-2,3-dihydro-1H-isoindole-5-carboxylic acid] |
| 0.5 to 2 | O=C(O)c1ccc(C(=O)Nc2cc(-c3ccccc3)ccc2C(=O)O)c(C(=O)O)c1 [Example 5, 4-({4-carboxy-[1,1′-biphenyl]-3-yl}carbamoyl)benzene-1,3-dicarboxylic acid] |

Source: patent US20230047816A1 (priority 2018, published 2023)
